Assay results taken from the supplement of paper PMC10307832.

Experiments:
Experiment in all cases: relative viability (nuclei count vs DMSO), 5 days (fraction); higher = more cells survive
GSK126 + Luminespib = compound: CC[C@H](C)N1C=C(C2=C(C=C(C=C21)C3=CN=C(C=C3)N4CCNCC4)C(=O)NCC5=C(C=C(NC5=O)C)C)C [GSK126] + CCNC(=O)c1noc(-c2cc(C(C)C)c(O)cc2O)c1-c1ccc(CN2CCOCC2)cc1 [Luminespib] (partner 0.01 µM)
Outline: (§1)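 Lung cancer cell lines were seeded in 1536-well plates and dosed by pin tool the next day, with either a single drug or a fixed anchor-drug dose combined with five library-drug doses (not always all listed) spaced in √10 steps. Five days later, one step fixed the cells and stained their nuclei (final 0.05% Triton X-100, 1% formaldehyde, 1 ug/ml Hoechst), and nuclei were counted on 4× images. Relative viability is the nuclei count in treated wells divided by the count in vehicle wells, and each value is the median of duplicate plates.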

[1] = compound: C1CC(C1)(C(=O)O)C(=O)O.[NH2-].[NH2-].[Pt+2] [Carboplatin] + CC(=O)c1c(C)c2cnc(Nc3ccc(N4CCNCC4)cn3)nc2n(C2CCCC2)c1=O [Palbociclib] (partner 0.5 µM)
Outline: as §1

GSK126 + Decitabine = compound: CC[C@H](C)N1C=C(C2=C(C=C(C=C21)C3=CN=C(C=C3)N4CCNCC4)C(=O)NCC5=C(C=C(NC5=O)C)C)C [GSK126] + Nc1ncn([C@H]2C[C@H](O)[C@@H](CO)O2)c(=O)n1 [Decitabine] (partner 2 µM)
Outline: as §1

MLN4924 + Palbociclib = compound: NS(=O)(=O)OC[C@@H]1C[C@@H](n2ccc3c(N[C@H]4CCc5ccccc54)ncnc32)C[C@@H]1O [MLN4924] + CC(=O)c1c(C)c2cnc(Nc3ccc(N4CCNCC4)cn3)nc2n(C2CCCC2)c1=O [Palbociclib] (partner 0.5 µM)
Outline: as §1

## UMC-11
GSK126 + Luminespib; first compound 0.08 µM
  relative viability: 1.19
GSK126 + Luminespib; first compound 0.253 µM
  relative viability: 1.07
GSK126 + Luminespib; first compound 0.8 µM
  relative viability: 1.04
GSK126 + Luminespib; first compound 2.53 µM
  relative viability: 1.07
GSK126 + Luminespib; first compound 8 µM
  relative viability: 1.31
[1]; first compound 0.08 µM
  relative viability: 0.314
[1]; first compound 0.253 µM
  relative viability: 0.348
[1]; first compound 0.8 µM
  relative viability: 0.275
[1]; first compound 2.53 µM
  relative viability: 0.301
[1]; first compound 8 µM
  relative viability: 0.339
GSK126 + Decitabine; first compound 0.08 µM
  relative viability: 0.695
GSK126 + Decitabine; first compound 0.253 µM
  relative viability: 0.557
GSK126 + Decitabine; first compound 0.8 µM
  relative viability: 0.626
GSK126 + Decitabine; first compound 2.53 µM
  relative viability: 0.604
GSK126 + Decitabine; first compound 8 µM
  relative viability: 0.658
MLN4924 + Palbociclib; first compound 0.04 µM
  relative viability: 0.335
MLN4924 + Palbociclib; first compound 0.1265 µM
  relative viability: 0.336
MLN4924 + Palbociclib; first compound 0.4 µM
  relative viability: 0.321
MLN4924 + Palbociclib; first compound 1.265 µM
  relative viability: 0.245
MLN4924 + Palbociclib; first compound 4 µM
  relative viability: 0.249
